Results: patent US9393288B2, “Methods of treating diseases associated with PPARγ” (The University of Vermont and State Agricultural College, priority 2012, dated 2016)

Test system: middle cerebral arteries (MCA)
Assay: Pressurized arteriograph: structure of MCA from female SHR
Assay type: in vivo, rat
Settings: SHR-F-Rln vs untreated SHR-F
Protocol: A separate group of SHR-F was used to determine if relaxin crosses the BBB by treating with relaxin (4 μg/hr) for 14 days and measuring relaxin concentration in cerebrospinal fluid (CSF) and serum (SHR-F-Rln-CSF, n=4). For the osmotic pump implant, animals were anesthetized with 3% isoflurane and minipumps implanted subcutaneously in the back of the neck. All animals received post-surgical analgesia (buprenorphine, 50 μg/kg, s.c.). Relaxin infusion was continuous for 14 days until animals were euthanized for isolated vessel experiments and tissue collection.
After collecting trunk blood, the brain was quickly removed and placed in cold physiological salt solution (PSS). […] Temperature and pH were continuously measured and maintained at 37.0±0.5° C. and 7.40±0.05, respectively. […]
PA and MCA were equilibrated for 1 hour, after which myogenic activity was determined by stepwise increases in pressure from 40 to 100 mmHg for PA or 50 to 175 mmHg for MCA. ID and WT were measured at each pressure once stable. […] To obtain structural measurements, ID and WT were recorded at pressures between 5 to 200 mmHg for PA or 5 to 175 mmHg for MCA in zero-calcium PSS containing ethylene glycol tetra-acetic acid (EGTA) and outer diameter (OD) and distensibility calculated.
Percent tone was calculated as percent decrease in ID from the passive diameter at each intravascular pressure: [1−(IDactive/IDpassive)]×100. […]

relaxin
Structure of MCA (passive ID, WT, distensibility): no effect
